Test results published in patent publication US20170196802A1, “Long Acting Injectable Formulations” (Abon Pharmaceuticals, LLC, priority 2016, published 2017).
Like-named read-outs stand apart in the source and are kept apart here.

Columns and labels:
[1] = weight gain, diabetes risk, dyslipidemia risk; cited from earlier work
[2] = Pharmacokinetic study, intramuscular injection, four arm parallel; type: in vivo, male Sprague-Dawley Rats; conditions: male, Sprague-Dawley, im, rat
Procedure: A long acting formulation is expected to suppress the maximum blood concentration (Cmax) and maintain therapeutic blood profiles for an extended period of time. […] To evaluate the in-vivo performance of our formulations, three suspensions of Lurasidone HCl were prepared with varying particle size and/or viscosity at 100 mg/mL with compositions given in Table 23, and with processes shown in FIGS. 11, 12 and 13 for Suspensions 1, 2, and 3, respectively. As a control, a solution of Lurasidone HCl was prepared at 2.5 mg/mL. […]
The blood samples were collected, placed into chilled tubes containing sodium heparin, inverted several times to mix, and kept on ice until centrifugation. […] Samples were analyzed with LC-MS/MS against an eight point standard curve with concentrations ranging from 0.05 ng/mL to 100 ng/mL. […]
Mass Spectrometer Conditions • Instrument: PE Sciex API4000 • Interface: Electrospray (“Turbo Ion Spray”) • Mode: Multiple reactions monitoring (MRM) • Gases: CUR 20, CAD 10, GS1 50, GS2 50 • Source Temperature: 500° C. • Voltages and Ions Monitored:
The formulations were well tolerated, and no adverse local or systemic reactions were observed following intramuscular administration of lurasidone to the animals. (Pharmacokinetic parameters were calculated with Phoenix WinNonlin version 6.4). […]

[3] = after oral administration of a 40 mg tablet; package insert; cited from earlier work
[4] = pH dependence; cited from earlier work

Row | half-life ([2]; 1.5 mg/kg, calculated based on terminal phase plasma concentrations above 2% of Cmax) [h] | half-life ([2]; plasma, 45 mg/kg) [h] | SMILES | metabolic effects [1] | half-life [3] [h] | solubility profile [4]
1 |  |  | Cc1cc2c(s1)Nc1ccccc1N=C2N1CCN(C)CC1 [olanzapine] | moderate to high |  | 
2 |  |  | CN1CCN(C2=Nc3cc(Cl)ccc3Nc3ccccc32)CC1 [clozapine] | moderate to high |  | 
3 | 10 | ≤ 505 | O=C1[C@@H]2[C@H]3CC[C@H](C3)[C@@H]2C(=O)N1C[C@@H]1CCCC[C@H]1CN1CCN(c2nsc3ccccc23)CC1 [lurasidone] | low | 18 | lower solubility at higher pH values
4 |  |  | OCCOCCN1CCN(C2=Nc3ccccc3Sc3ccccc32)CC1 [quetiapine] | moderate to high |  | 
